Source: patent publication US12065445B2, “CDK2 inhibitors and methods of using the same” (Cedilla Therapeutics, Inc., priority 2021, dated 2024)

Tested on: Kuramochi cells
Test: BrdU Cell Proliferation Assay
Format: cell-based
Settings: read-out: BrdU - KURAMOCHI.1: IC50
Method: A BrdU assay was used as a measure of proliferation based on the DNA replication process of proliferating cells. BrdU, a pyrimidine analog, is added to the cell culture and incorporated into the DNA of proliferating cells. The presence of the BrdU analog was then measured through a colorimetric ELISA. After fixation and permeabilization of cells, peroxidase-conjugated antibody recognizing BrdU is added and allowed to incubate, followed by thorough washing to remove unbound antibody. In order to quantify the amount of bound antibody, peroxidase substrate is added and produces a color that can be measured at 450 nm.
On day −1, Kuramochi cells (Sekisui XenoTech JCRB0098) were seeded at 2,000 cells/well in columns 2-12 of a 96 well plate (Corning, CLS3596) in 150 μL media and allowed to adhere overnight at 37 degree with 5% CO2.
On day 0, the source plate was prepared by adding 10 mM compounds and performing 3-fold serial dilutions for a 10-point dose response of each compound. Using a multichannel pipette, 2 μL of the contents of the source plate were stamped into an intermediate plate with 500 μL of RPMI 1640 Media, GlutaMAX Supplement (Life Technologies, 61870127) in each well of a Nunc 96 DeepWell™ plate, non-treated 96 DeepWell plate, 2 mL/well, sterile, natural, 60/cs (Sigma Z717274) and mixed thoroughly. 50 μL from each well of this intermediate plate were added to 4 wells of a 96-well plate with previously seeded Kuramochi cells.
On day 4, the plates were developed using the BrdU ELISA Cell Proliferation Assay according to manufacturer's instructions (Roche, 11647229001). Briefly, BrdU was diluted 1:100 in Gibco®, OptiMEM® and 20 μL/well was added, shaken for 10 minutes at 350 rpm, and then returned to the incubator for 1 hour. Following incubation, the medium was discarded, and the cells were fixed by adding 200 μL of Fix/Denature solution. The anti-BrdU peroxidase antibody was diluted 1:1000 in OptiMEM, added at 100 μL/well, and incubated while shaking (350 rpm) for one hour. Three washes with PBS were performed to remove any unbound antibody, followed by the addition of 100 μL of substrate solution to each well. 25 μL/well of 1M sulfuric acid solution was then added to halt the reaction, and plates were read out using an Envision spectrophotometer (Perkin Elmer) set to read 450 nm absorbance. Background absorbance values from empty wells were subtracted from all samples and then normalized to DMSO treated wells.

**Q.** CNC(=O)[C@@H](NC(=O)[C@H]1CN(C(=O)C2CCNC2)CC12CN(C(=O)[C@H]1CC1(C)C)C2)[C@@H](C)OCc1ccccc1 (stereo partly drawn) [I-70B] was tested. Which IC50 did it give?
**A.** > 10 µM

**Q.** CNC(=O)[C@@H](NC(=O)[C@@H]1CN(C(=O)c2cnn(Cc3ccccc3)c2)CC12CN(C(=O)C1(F)CC1)C2)[C@@H](C)OCc1ccccc1 [I-71A] was tested. Which IC50 did it give?
**A.** > 10 µM

**Q.** For CNC(=O)[C@@H](NC(=O)[C@H]1CN(C(=O)c2cnn(Cc3ccccc3)c2)CC12CN(C(=O)C1(F)CC1)C2)[C@@H](C)OCc1ccccc1 [I-71B], which IC50 is on record?
**A.** > 10 µM

**Q.** How did the IC50 turn out when CNC(=O)[C@@H](NC(=O)[C@@H]1CN(C(=O)c2c[nH]c3ccccc23)CC12CN(C(=O)[C@H]1CC1(C)C)C2)[C@@H](C)OCc1ccccc1 [I-72A] was run?
**A.** > 10 µM

**Q.** How did the IC50 turn out when CNC(=O)[C@@H](NC(=O)[C@H]1CN(C(=O)c2c[nH]c3ccccc23)CC12CN(C(=O)[C@H]1CC1(C)C)C2)[C@@H](C)OCc1ccccc1 [I-72B] was run?
**A.** > 10 µM

**Q.** How did the IC50 turn out when CNC(=O)[C@@H](NC(=O)[C@@H]1CN(C(=O)c2cnn(Cc3ccccc3)c2)CC12CN(C(=O)C1(C#N)CC1)C2)[C@@H](C)OCc1ccccc1 [I-73A] was run?
**A.** > 10 µM

**Q.** Which IC50 does the source give for CNC(=O)[C@@H](NC(=O)[C@H]1CN(C(=O)c2cnn(Cc3ccccc3)c2)CC12CN(C(=O)C1(C#N)CC1)C2)[C@@H](C)OCc1ccccc1 [I-73B] here?
**A.** > 10 µM

**Q.** How did the IC50 turn out when CCC(CC)C(=O)N1CC2(CN(C(=O)c3cnn(Cc4ccccc4)c3)C[C@H]2C(=O)N[C@H](C(=O)NC)[C@@H](C)OCc2ccccc2)C1 [I-74A] was run?
**A.** > 10 µM

**Q.** For CCC(CC)C(=O)N1CC2(CN(C(=O)c3cnn(Cc4ccccc4)c3)C[C@@H]2C(=O)N[C@H](C(=O)NC)[C@@H](C)OCc2ccccc2)C1 [I-74B], which IC50 is on record?
**A.** > 10 µM

**Q.** Which IC50 does the source give for CC1(C)C[C@@H]1C(=O)N1CC2(CN(C(=O)c3cnn(Cc4ccccc4)c3)C[C@H]2C(=O)Nc2cccc(Cc3ccccc3)c2)C1 [I-75A] here?
**A.** 0.5 to 5 µM

**Q.** CC1(C)C[C@@H]1C(=O)N1CC2(CN(C(=O)c3cnn(Cc4ccccc4)c3)C[C@@H]2C(=O)Nc2cccc(Cc3ccccc3)c2)C1 [I-75B] was tested. Which IC50 did it give?
**A.** > 10 µM

**Q.** For CNC(=O)[C@@H](NC(=O)[C@@H]1CN(C(=O)c2cnn(Cc3ccccc3)c2)CC12CN(C(=O)C(C)(C)C#N)C2)[C@@H](C)OCc1ccccc1 [I-76A], which IC50 is on record?
**A.** > 10 µM

**Q.** How did the IC50 turn out when CNC(=O)[C@@H](NC(=O)[C@H]1CN(C(=O)c2cnn(Cc3ccccc3)c2)CC12CN(C(=O)C(C)(C)C#N)C2)[C@@H](C)OCc1ccccc1 [I-76B] was run?
**A.** > 10 µM

**Q.** How did the IC50 turn out when CNC(=O)[C@@H](NC(=O)[C@@H]1CN(Cc2cnc[nH]2)CC12CN(C(=O)[C@H]1CC1(C)C)C2)[C@@H](C)OCc1ccccc1 [I-77A, (S)-6-((1H-imidazol-5-yl)methyl)-N-((2S,3R)-3-(benzyloxy)-1-(methylamino)-1-oxobutan-2-yl)-2-((S)-2,2-dimethylcyclopropane-1-carbonyl)-2,6-diazaspiro[3.4]octane-8-carboxamide] was run?
**A.** > 10 µM

**Q.** For CNC(=O)[C@@H](NC(=O)[C@H]1CN(Cc2cnc[nH]2)CC12CN(C(=O)[C@H]1CC1(C)C)C2)[C@@H](C)OCc1ccccc1 [I-77B], which IC50 is on record?
**A.** > 10 µM

**Q.** Which IC50 does the source give for CNC(=O)[C@@H](NC(=O)[C@@H]1CN(Cc2cnco2)CC12CN(C(=O)[C@H]1CC1(C)C)C2)[C@@H](C)OCc1ccccc1 [I-78A, (S)—N-((2S,3R)-3-(benzyloxy)-1-(methylamino)-1-oxobutan-2-yl)-2-((S)-2,2-dimethylcyclopropane-1-carbonyl)-6-(oxazol-5-ylmethyl)-2,6-diazaspiro[3.4]octane-8-carboxamide] here?
**A.** > 10 µM

**Q.** With CNC(=O)[C@@H](NC(=O)[C@H]1CN(Cc2cnco2)CC12CN(C(=O)[C@H]1CC1(C)C)C2)[C@@H](C)OCc1ccccc1 [I-78B] as the compound, how does the IC50 read?
**A.** > 10 µM

**Q.** Which IC50 does the source give for CNC(=O)[C@@H](NC(=O)[C@@H]1CN(S(=O)(=O)c2cnn(Cc3ccccc3)c2)CC12CN(C(=O)[C@H]1CC1(C)C)C2)[C@@H](C)OCc1ccccc1 [I-79A] here?
**A.** > 10 µM

**Q.** CNC(=O)[C@@H](NC(=O)[C@H]1CN(S(=O)(=O)c2cnn(Cc3ccccc3)c2)CC12CN(C(=O)[C@H]1CC1(C)C)C2)[C@@H](C)OCc1ccccc1 [I-79B] was tested. Which IC50 did it give?
**A.** > 10 µM

**Q.** How did the IC50 turn out when CNC(=O)[C@@H](NC(=O)[C@@H]1CN(C(=O)c2cnn(Cc3ccccc3)c2)CC12CN(C(=O)C1(c3ccc(C(C)(C)C)cc3)CC1)C2)[C@@H](C)OCc1ccccc1 [I-80A] was run?
**A.** > 10 µM

**Q.** For CNC(=O)[C@@H](NC(=O)[C@H]1CN(C(=O)c2cnn(Cc3ccccc3)c2)CC12CN(C(=O)C1(c3ccc(C(C)(C)C)cc3)CC1)C2)[C@@H](C)OCc1ccccc1 [I-80B], which IC50 is on record?
**A.** > 10 µM

**Q.** With CC1(C)C[C@@H]1C(=O)N1CC2(CN(C(=O)c3cnn(Cc4ccccc4)c3)C[C@@H]2C(=O)Nc2ccc(-c3ccccc3)cc2)C1 [I-81B] as the compound, how does the IC50 read?
**A.** 5 to 10 µM

**Q.** For CNC(=O)[C@@H](NC(=O)[C@@H]1CN(C(=O)c2cnn(Cc3ccccc3)c2)CC12CN(C(=O)CC1(COC)CC1)C2)[C@@H](C)OCc1ccccc1 [I-82A], which IC50 is on record?
**A.** > 10 µM

**Q.** Which IC50 does the source give for CNC(=O)[C@@H](NC(=O)[C@H]1CN(C(=O)c2cnn(Cc3ccccc3)c2)CC12CN(C(=O)CC1(COC)CC1)C2)[C@@H](C)OCc1ccccc1 [I-82B] here?
**A.** > 10 µM

**Q.** Which IC50 does the source give for CC1(C)C[C@@H]1C(=O)N1CC2(CN(C(=O)c3cnn(Cc4ccccc4)c3)C[C@H]2C(=O)N[C@H]2CCCN(C(=O)c3ccccc3)C2)C1 [I-83A] here?
**A.** > 10 µM

**Q.** How did the IC50 turn out when CC1(C)C[C@@H]1C(=O)N1CC2(CN(C(=O)c3cnn(Cc4ccccc4)c3)C[C@@H]2C(=O)N[C@H]2CCCN(C(=O)c3ccccc3)C2)C1 [I-83B] was run?
**A.** > 10 µM

**Q.** For CC1(C)C[C@@H]1C(=O)N1CC2(CN(C(=O)c3cnn(Cc4ccccc4)c3)C[C@@H]2C(=O)Nc2ccc(Cc3ccccc3)cc2)C1 [I-84B], which IC50 is on record?
**A.** 5 to 10 µM

**Q.** Which IC50 does the source give for C[C@@H](OCc1ccccc1)[C@H](NC(=O)C1CN(C(=O)c2cnn(Cc3ccccc3)c2)CC12CN(C(=O)[C@H]1CC1(C)C)C2)C(=O)N1CCC(F)(F)CC1 (stereo partly drawn) [I-85] here?
**A.** 0.5 to 5 µM

**Q.** Which IC50 does the source give for C[C@@H](OCc1ccccc1)[C@H](NC(=O)C1CN(C(=O)c2cnn(Cc3ccccc3)c2)CC12CN(C(=O)[C@H]1CC1(C)C)C2)C(=O)N1CCOCC1 (stereo partly drawn) [I-86] here?
**A.** > 10 µM

**Q.** CNC(=O)[C@@H](NC(=O)[C@@H]1CN(C(=O)c2cnn(Cc3ccccc3)c2)CC12CN(C(=O)CC(F)(F)F)C2)[C@@H](C)OCc1ccccc1 [I-87A] was tested. Which IC50 did it give?
**A.** > 10 µM

**Q.** CNC(=O)[C@@H](NC(=O)[C@H]1CN(C(=O)c2cnn(Cc3ccccc3)c2)CC12CN(C(=O)CC(F)(F)F)C2)[C@@H](C)OCc1ccccc1 [I-87B] was tested. Which IC50 did it give?
**A.** > 10 µM

**Q.** For CNC(=O)[C@@H](NC(=O)[C@@H]1CN(C(=O)c2cnn(Cc3ccccc3)c2)CC12CN(C(=O)[C@H]1CC1(C)C)C2)[C@@H](C)O [I-88A, (S)-6-(1-benzyl-1H-pyrazole-4-carbonyl)-2-((S)-2,2-dimethylcyclopropane-1-carbonyl)-N-((2S,3R)-3-hydroxy-1-(methylamino)-1-oxobutan-2-yl)-2,6-diazaspiro[3.4]octane-8-carboxamide], which IC50 is on record?
**A.** > 10 µM

**Q.** With CNC(=O)[C@@H](NC(=O)[C@H]1CN(C(=O)c2cnn(Cc3ccccc3)c2)CC12CN(C(=O)C1CC1(C)C)C2)[C@@H](C)O (stereo partly drawn) [I-88B] as the compound, how does the IC50 read?
**A.** > 10 µM

**Q.** Which IC50 does the source give for CNC(=O)[C@@H](NC(=O)[C@@H]1CN(C(=O)c2cnn(Cc3ccccc3)c2)CC12CN(C(=O)C1C(C)(C)C1(C)C)C2)[C@@H](C)OCc1ccccc1 [I-89A] here?
**A.** > 10 µM

**Q.** With CNC(=O)[C@@H](NC(=O)[C@H]1CN(C(=O)c2cnn(Cc3ccccc3)c2)CC12CN(C(=O)C1C(C)(C)C1(C)C)C2)[C@@H](C)OCc1ccccc1 [I-89B] as the compound, how does the IC50 read?
**A.** > 10 µM

**Q.** For CNC(=O)[C@@H](NC(=O)[C@@H]1CN(C(=O)c2cnn(Cc3ccccc3)c2)CC12CN(C(=O)C(C)(C)F)C2)[C@@H](C)OCc1ccccc1 [I-90A], which IC50 is on record?
**A.** > 10 µM
